TGI data for 5 compounds are collected here from PubChem BioAssay (NCI).

Common to all, as to assay: inhibition of tumour cell growth, NCI panel, 48 h
Assay [1] relates to NCI/ADR-RES ovarian.
The subject of assay [2] is NCI-H460 lung.
Assay [3] concerns ACHN renal.
Assay [4] deals with BT-549 breast.
Assay [5] deals with SF-539 CNS.
Assay [6] concerns M14 melanoma.
For assay [7], the system named is SF-268 CNS.
Assay [8] relates to COLO 205 colon.
For assay [9], the system named is HT29 colon.
The subject of assay [10] is EKVX NSCLC.
For assay [11], the system named is OVCAR-8 ovarian.
Assay [12] relates to SF-295 CNS.
In assay [13] the test system is UACC-257 melanoma.
The test system of assay [14] is SK-MEL-28 melanoma.
Assay [15] concerns T-47D breast.
Assay [16] concerns UACC-62 melanoma.
The subject of assay [17] is MDA-MB-231 breast.
Assay [18] deals with SR leukemia.
The subject of assay [19] is HOP-62 NSCLC.
For assay [20], the system named is IGROV1 ovarian.

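In this assay, cells in 96-well plates receive the compound at five concentrations for 48 hours. Endpoints are linearly interpolated between the surrounding concentrations. At the TGI there is no net growth.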 Where only a bound is given, the exact number is not on record here.

As for `COC(=O)c1sc2c(=O)c(C(=O)OC)c(C(=O)OC)sc2c(=O)c1C(=O)OC`, the TGI in assay [1], in assay [2], in assay [3], in assay [4], in assay [5] and in assay [6] was > 100 µM each time. Besides, the TGI in assay [7], in assay [8], in assay [9], in [10], in assay [11] and in assay [12] was > 100 µM throughout. In addition, the TGI in assay [13], in [14], in [15], in [16], in assay [17] and in assay [18] was > 100 µM in each case. The TGI in assay [19] and in [20] was > 100 µM each time.
Consider `CN(C)/C=C/c1c2c(nc3ccccc13)C(=O)c1cccnc1C2=O`, for which the TGI in assay [1] was 1.9 µM; in [2], 0.532 µM; in assay [3] it was 2.28 µM; in [4], 1.6 µM; in assay [5], 1.21 µM; in assay [6] it was 0.597 µM. Also, the TGI in assay [7] is 4.02 µM; in assay [8] it was 5.55 µM; in assay [9], 5.15 µM; in assay [10], 22.9 µM; in assay [11], 3.2 µM; in [12], 1.62 µM. The TGI in assay [13] was 1.8 µM; in assay [14], 1.84 µM; in assay [15], 21.6 µM; in assay [16] it was 1.25 µM; in assay [17], > 100 µM; in [18] it was 0.907 µM. In addition, the TGI in assay [19] is 0.435 µM; in assay [20], 4.16 µM.
As for `Nc1ncnc2c1ncn2[C@@H]1O[C@H](COP(=O)(O)OP(=O)(O)OC[C@H]2O[C@@H](OCCCO)[C@H](O)[C@@H]2O)[C@@H](O)[C@H]1O`, the TGI in assay [1], in assay [2], in assay [3], in assay [4], in [5] and in [6] was > 100 µM throughout. In addition, the TGI in assay [7], in [8], in assay [9], in assay [10], in [11] and in assay [12] was > 100 µM throughout. For the same compound, the TGI in assay [13], in assay [14], in [15], in assay [16], in assay [17] and in assay [18] was > 100 µM throughout. Further, the TGI in [19] and in assay [20] was > 100 µM in each case.
For `Cc1cccc2c(NCCN(C)C)c3cccc(C(=O)NCCN(C)C)c3nc12`, the TGI was 11.6 µM in [1]; 4.08 µM in assay [2]; 4.33 µM in assay [3]; 4.55 µM in assay [4]; 0.68 µM in assay [5]; 2.44 µM in assay [6]. Moreover, the TGI was determined as 2.85 µM in assay [7]; 1.61 µM in assay [8]; 4.16 µM in assay [9]; 4.29 µM in assay [10]; 10.2 µM in assay [11]; 3.77 µM in assay [12]. The TGI in [13] was 2.47 µM; in assay [14], 8.37 µM; in [15], 19.7 µM; in [16] it was 0.311 µM; in assay [17], 0.728 µM; in assay [18], 0.319 µM. The results for the TGI in [19] and in assay [20] were 3.93 µM and 6.64 µM, respectively.
Consider `COc1ccc2c(=O)c3c([nH]c2c1)OCC3=O`, for which the TGI in assay [1], in assay [2], in assay [3], in assay [4], in assay [5] and in assay [6] was > 100 µM throughout. Further, the TGI in assay [7], in assay [8], in assay [9], in assay [10], in assay [11] and in assay [12] was > 100 µM in each case. Further, the TGI in assay [13], in assay [14], in [15], in assay [16], in assay [17] and in assay [18] was > 100 µM each time. The TGI in [19] and in assay [20] was > 100 µM in each case.
